This passage reports Activity, IC50 and EC50 results from ChEMBL document CHEMBL1759896, “Asymmetric total synthesis of (+)- and (-)-clusianone and (+)- and (-)-clusianone methyl enol ether via ACC alkylation and evaluation of their anti-HIV activity” (Bioorg Med Chem Lett, 2011).

Activity calls are given as the source filed them. The rule behind the calls is not given here.

Holding throughout (assay type): functional, organism-based
The subject of assay [1] is Human immunodeficiency virus 1. Nature of the assay: Antiviral activity against HIV1 Env-pseudovirus infected in human Jurkat E6-1 cells after 2 days by luciferase assay. The conditions noted are these: for IC50: Human immunodeficiency virus 1, Jurkat, 48 h.
Assay [2] concerns Human immunodeficiency virus 1. Description: Antiviral activity against HIV1 Env-pseudovirus infected in mouse 3T3.T4.CCR5 cells after 2 days by luciferase assay.
For assay [3], the system named is Human immunodeficiency virus 1. Description: Antiviral activity against HIV1 MN infected in human C8166 cells. The conditions noted are these: Human immunodeficiency virus 1, MN.

For the compound `CC(C)=CC[C@H]1C[C@]2(CC=C(C)C)C(=O)[C@@](CC=C(C)C)(C(=O)C(C(=O)c3ccccc3)=C2O)C1(C)C` (stereo in doubt; 2), the outcome in assay [1] was Active.
One may read the IC50 as the concentration that gives 50% inhibition. As a reminder, the EC50 is the midpoint of the concentration-response curve. Low values mean a more potent agent, high ones a less potent agent. For `CC(C)=CC[C@H]1C[C@]2(CC=C(C)C)C(=O)[C@@](CC=C(C)C)(C(=O)C(C(=O)c3ccccc3)=C2O)C1(C)C` (stereo in doubt; 1) [6-EPI-CLUSIANONE], in assay [2] (Human immunodeficiency virus 1, 3T3.T4.CCR5, 48 h, read-out: IC50), the IC50 turned out to be 1530 nM. In assay [3], this compound displayed an EC50 of 20 nM.
In the case of `Cc1cn([C@H]2C[C@H](N=[N+]=[N-])[C@@H](CO)O2)c(=O)[nH]c1=O` [ZIDOVUDINE], the midpoint of inhibition in assay [1], the IC50, lay at 120 nM.
As to `COC1=C(C(=O)c2ccccc2)C(=O)[C@]2(CC=C(C)C)C[C@H](CC=C(C)C)C(C)(C)C1(CC=C(C)C)C2=O`, the IC50 result in assay [2] (3t3.t4.ccr5) was “Not Active”.
With `Cc1ccnc2c1NC(=O)c1cccnc1N2C1CC1` [NEVIRAPINE], half-maximal inhibition in assay [1] (IC50) was put at 40 nM.
As for `CC(C)=CC[C@H]1C[C@]2(CC=C(C)C)C(=O)[C@@](CC=C(C)C)(C(=O)C(C(=O)c3ccccc3)=C2O)C1(C)C` (stereo in doubt; 2) [6-EPI-CLUSIANONE], the IC50 in assay [2] (3t3.t4.ccr5, read-out: IC50) was determined as 1130 nM.
For the compound `CC(C)=CC[C@H]1C[C@]2(CC=C(C)C)C(=O)[C@@](CC=C(C)C)(C(=O)C(C(=O)c3ccccc3)=C2O)C1(C)C` (stereo in doubt; 1), the result in assay [1] was Active.
